Results taken from paper PMC11259170, “Small-molecule probe for IBD risk variant GPR65 I231L alters cytokine signaling networks through positive allosteric modulation” (Science Advances, 2024).
Like-named read-outs stand apart in the source and are kept apart here.

What was measured:
hGPR65 = biological target: T1, hGPR65 (Homo sapiens, UniProt Q8IYL9); assay: cAMP detection in HeLa expression cell line, hGPR65; assay type: cell-based; details: NA = no activity; for EC50: read-out: hGPR EC50; for Emax: HeLa, relative to 100uM forskolin (100%) and DMSO (0%), read-out: hGPR Max Activity %
T1 construct: expressed in transfected cells; host or cells: HeLa (ATCC CCL-2), lentiviral transduction, pLX317
How it was run: (§1)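 HeLa cells stably expressing C-terminally V5-tagged receptor (lentiviral transduction, puromycin-selected) were stimulated with compound from a 10 mM DMSO stock for 30 min at RT in stimulation buffer adjusted to pH 7.2, 1500 cells per well. cAMP was read by LANCE Ultra TR-FRET (665/620 nm) after 1 h detection.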

mGPR65 = biological target: T2, mGPR65 (Mus musculus, UniProt Q61038); assay: cAMP detection in HeLa expression cell line, mGPR65; assay type: cell-based; details: NA = no activity; for EC50: read-out: mGPR EC50; for Emax: HeLa, relative to 100uM forskolin (100%) and DMSO (0%), read-out: mGPR Max Activity %
T2 construct: expressed in transfected cells; host or cells: HeLa (ATCC CCL-2), lentiviral transduction, pLX317
How it was run: as §1

[1] = test system: GFP-expressing HeLa cells; assay: cAMP detection in HeLa expression cell line, GFP control; assay type: cell-based, human; details: Homo sapiens, HeLa, 2nd GFP column pair, NA = no activity
How it was run: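 TR-FRET cAMP read-out (Lance Ultra; ex 337 nm, em 620 and 665 nm) after 1 h detection in the dark, following a 30 min RT stimulation of 1500 cells per well in pH 7.2 stimulation buffer with compound supplied as 10 mM DMSO stock. Cells: lentivirally transduced HeLa lines carrying V5-tagged GPCR or GFP, kept under 3 μg/ml puromycin.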

[2] = Solubility remark in the Comments column of the SAR table; assay type: physicochemical
Text: Supplement sciadv.adn2339_data_s1_to_s4.zip/sciadv.adn2339_data_s2.xlsx, sheet "SAR cAMP Assay"

T2 sequence (Q61038 whole entry): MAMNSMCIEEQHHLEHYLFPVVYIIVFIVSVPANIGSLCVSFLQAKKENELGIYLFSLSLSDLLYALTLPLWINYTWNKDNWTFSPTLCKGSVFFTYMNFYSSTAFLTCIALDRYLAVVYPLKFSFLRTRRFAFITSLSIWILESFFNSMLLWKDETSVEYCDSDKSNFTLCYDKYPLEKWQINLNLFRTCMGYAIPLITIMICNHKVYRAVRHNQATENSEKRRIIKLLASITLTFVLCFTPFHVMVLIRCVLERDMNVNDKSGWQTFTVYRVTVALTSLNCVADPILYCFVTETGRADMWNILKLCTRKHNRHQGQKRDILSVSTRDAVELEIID
T1 sequence (Q8IYL9 whole entry): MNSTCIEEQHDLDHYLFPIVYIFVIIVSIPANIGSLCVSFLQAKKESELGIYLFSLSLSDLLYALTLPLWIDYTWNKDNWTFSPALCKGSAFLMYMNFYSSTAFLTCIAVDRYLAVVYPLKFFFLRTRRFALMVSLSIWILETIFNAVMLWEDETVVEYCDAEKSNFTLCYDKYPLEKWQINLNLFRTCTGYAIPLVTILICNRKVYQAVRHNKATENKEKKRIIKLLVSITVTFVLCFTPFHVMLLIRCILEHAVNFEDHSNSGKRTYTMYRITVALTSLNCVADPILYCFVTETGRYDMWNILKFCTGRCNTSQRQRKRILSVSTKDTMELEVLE

Cc1ccc(NC(=O)c2cnn3c(O)cc(-c4ccc(-c5ccccc5C(C)C)cc4)nc23)cc1 [BRD4665]
EC50 (hGPR65; 1st hGPR column pair): 0.227 µM | EC50 (hGPR65; 2nd hGPR column pair): 0.152 µM | Emax (hGPR65; 1st hGPR column pair): 76.3% | Emax (hGPR65; 2nd hGPR column pair): 79.6% | EC50 (mGPR65; 1st mGPR column pair): 0.787 µM | EC50 (mGPR65; 2nd mGPR column pair): 0.627 µM | Emax (mGPR65; 2nd mGPR column pair): 33.2% | Emax (mGPR65): 34.9% | EC50 [1]: 26.4 µM | Emax ([1]; relative to 100uM forskolin (100%) and DMSO (0%), read-out: GFP Max Activity %): 12% | Comments (solubility) [2]: Poor solubility.
